Results as given in patent publication US20230255953A1, “USE OF ROLUPERIDONE IN PREVENTING RELAPSE IN SCHIZOPHRENIA PATIENTS” (Minerva Neurosciences, Inc., priority 2022, published 2023).

Assays:
Assay type in all cases: in vivo, human
[1] = system: patients with negative symptoms of schizophrenia; assay: Integrated analysis (pooled ITT): patient disposition, reasons for withdrawal; conditions: for Withdrawn from double-blind period: Adverse event, % / Withdrawn from double-blind period: Death, % / Withdrawn from double-blind period: Lack of efficacy, %: DB
Procedure: (§1) The Efficacy data from Study Nos. 1 and 2 were pooled. The majority of patients in the pooled ITT population completed the DB period (502 patients overall, 66.3%), with similar rates in each treatment group (placebo: 69.8%, 32 mg Roluperidone: 65.3%, and 64 mg Roluperidone: 63.8%) (Table 12). The majority (62.7%) of those who completed the DB period entered the OL period. The most common reason for discontinuation during the DB period among patients overall was withdrawal of consent (15.6%), followed by adverse events (7.3%) and lack of efficacy (5.4%) (Table 12). […] Approximately twice as many patients in the Roluperidone groups (32 mg: 8.5%; 64 mg: 9.1%) discontinued due to adverse events compared with patients in the placebo group (4.3%). More patients in the placebo group discontinued due to lack of efficacy (6.7%) than in the Roluperidone groups (32 mg: 4.4%; 64 mg: 5.1%). The low number of patients who discontinued due to lack of efficacy or withdrawal of consent probably reflects a low level of worsening of positive symptoms.
A similar proportion of patients in each OL treatment group entered the OL period from the DB period (range: 61.3% to 65.6%) (Table 13). The most common reason for discontinuation in the OL period among patients was withdrawal of consent (93 patients, 12.3%), followed by adverse event (45 patients, 5.9%) and lack of efficacy (16 patients, 2.1%).

[2] = system: patients with negative symptoms of schizophrenia; assay: Integrated analysis (pooled ITT): rate of relapse and time to relapse
Procedure: (§2) “Time to relapse” in the DB period is defined as the number of days from Day 1 to the date of early trial termination due to relapse. […] Treatment differences in time to relapse in the DB period were analyzed using a Cox-regression model with treatment group and Baseline PANSS total score as covariates. For the analysis of the OL period, this analysis was repeated to analyze treatment differences in time to relapse in the study. For the OL period analysis, patients who were not observed to relapse in the study were censored on the date on which they ended the study. Kaplan-Meier plots of time to relapse in the DB period, OL period, and in the study were generated.
(§3) In some embodiments, for any of the methods disclosed herein, a relapse refers to a patient who is terminated early during treatment (or a study trial) due to worsening of psychosis or an adverse event or generalized symptom in Table 1.
as §1

[3] = system: patients with negative symptoms of schizophrenia; assay: Study #2 (MIN-101C07): rate of relapse and time to relapse; conditions: for Patients who experienced relapse (%) / Patients who experienced relapse (number) / Days to relapse (Kaplan-Meier estimates), Mean / Days to relapse (Kaplan-Meier estimates), Median: ITT, MIN-101C07
Procedure: as §2, §3
(§4) Study #2 (also referred to as “MIN101C07”) was a Phase 3, randomized, DB, placebo-controlled, parallel-group 12-week study to evaluate the efficacy and safety of Roluperidone in patients ≥18 years to ≤55 years with negative symptoms of schizophrenia, followed by a 40-week OL extension. The study consisted of a pretreatment screening period of up to 28 days (including an antipsychotic medication washout period), a 12-week, DB, placebo-controlled period, and a 40-week OL period. Eligible patients (with moderate to severe negative symptoms of schizophrenia and stable positive symptoms but without severe symptoms of suspiciousness, agitation, hostility, uncooperativeness, or poor impulse control) were randomized 1:1:1 to receive Roluperidone 32 mg QD, Roluperidone 64 mg QD (GR01/B formulation, see U.S. Pat. No. 11,464,744), or placebo, orally, for 12 weeks. […] During the 40-week OL treatment extension, patients who were initially randomized to Roluperidone 32 mg or 64 mg continued treatment with the same dose, while patients who were initially randomized to placebo crossed over to Roluperidone 32 mg or 64 mg in a 1:1 ratio.

[4] = system: patients with negative symptoms of schizophrenia; assay: Study #2 (MIN-101C07): Calgary Depression Scale for Schizophrenia; conditions: Week 12 DB, ITT
Text: as §4

[5] = Placebo in DB to 32 mg in OL (N = 128)
[6] = Placebo in DB to 64 mg in OL (N = 127)
[7] = Placebo in DB to Roluperidone in OL, Total (N = 255)
[8] = Roluperidone at Any Time 32 mg (N = 376)
[9] = Roluperidone at Any Time 64 mg (N = 381)
[10] = Roluperidone Total (N = 502), DB period
[11] = Placebo in DB to 32 mg in OL (N = 59), OL period
[12] = Roluperidone Total 32+64 mg (N = 341), DB period
[13] = Roluperidone Total 32+64 mg, DB period
[14] = Roluperidone throughout, Total (N = 211), OL period

## 1H-Isoindol-1-one,2-[ [1-[2-(4-fluorophenyl)-2-oxoethyl]-4-piperidinyl]methyl]-2,3-dihydro-, hydrochloride, hydrate (1:1:2) [Roluperidone]
[1]; 32 mg (N = 248)
  Withdrawn from double-blind period: Adverse event, %: 8.5%
  Withdrawn from double-blind period: Death, %: 0.4%
  Withdrawn from double-blind period: Lack of efficacy, %: 4.4%
[1]; 64 mg (N = 254)
  Withdrawn from double-blind period: Adverse event, %: 9.1%
  Withdrawn from double-blind period: Lack of efficacy, %: 5.1%
[1]; [5]
  Withdrawn from OL period: Adverse event, %: (6.3) %
  Withdrawn from OL period: Lack of efficacy, %: (3.1) %
[1]; [6]
  Withdrawn from OL period: Adverse event, %: (3.9) %
  Withdrawn from OL period: Lack of efficacy, %: (1.6) %
[1]; [7]
  Withdrawn from OL period: Adverse event, %: (5.1) %
  Withdrawn from OL period: Lack of efficacy, %: (2.4) %
[1]; Roluperidone Total (N = 502)
  Withdrawn from double-blind period: Adverse event, %: 8.8%
  Withdrawn from double-blind period: Death, %: 0.2%
  Withdrawn from double-blind period: Lack of efficacy, %: 4.8%
[1]; [8]
  Withdrawn from OL period: Adverse event, %: (5.6) %
  Withdrawn from OL period: Lack of efficacy, %: (2.1) %
[1]; [9]
  Withdrawn from OL period: Adverse event, %: (6.3) %
  Withdrawn from OL period: Lack of efficacy, %: (2.1) %
[2]; 32 mg (N = 248), DB period
  Patients who experienced relapse (%): 8%
  Patients who experienced relapse (number): 19
[2]; 32 mg group, OL period
  Mean number of days to relapse: 234.8 days
[2]; 32 mg throughout, OL period
  Patients who experienced relapse (%): 7%
  Patients who experienced relapse (number): 10
[2]; 32 mg, DB period
  Days to relapse (Kaplan-Meier estimates), Mean: 128.3 days
  Days to relapse (Kaplan-Meier estimates), Median: 137.0 days
[2]; 64 mg (N = 254), DB period
  Patients who experienced relapse (%): 6%
  Patients who experienced relapse (number): 16
[2]; 64 mg group, OL period
  Mean number of days to relapse: 188.1 days
[2]; 64 mg throughout, OL period
  Patients who experienced relapse (%): 8%
  Patients who experienced relapse (number): 12
[2]; 64 mg, DB period
  Days to relapse (Kaplan-Meier estimates), Mean: 81.4 days
[2]; [10]
  Patients who experienced relapse (%): 7%
  Patients who experienced relapse (number): 35
[2]; Roluperidone Total, DB period
  Days to relapse (Kaplan-Meier estimates), Mean: 128.9 days
  Days to relapse (Kaplan-Meier estimates), Median: 137.0 days
[2]; placebo to 32 mg, OL period
  Patients who experienced relapse (%): 11%
  Patients who experienced relapse (number): 9
[2]; placebo to 64 mg, OL period
  Patients who experienced relapse (%): 1%
  Patients who experienced relapse (number): 1
[2]; total placebo to Roluperidone group, OL period
  Mean number of days to relapse: 256.3 days
[3]; 32 mg (N = 170), DB period
  Patients who experienced relapse (%): 11%
  Patients who experienced relapse (number): 18
[3]; 32 mg throughout the study (N = 107), OL period
  Patients who experienced relapse (number): 9
[3]; 32 mg throughout the study, OL period
  Days to relapse (Kaplan-Meier estimates), Mean: 232.4 days
[3]; 32 mg, DB period
  Days to relapse (Kaplan-Meier estimates), Mean: 124.9 days
  Days to relapse (Kaplan-Meier estimates), Median: 137.0 days
[3]; 64 mg (N = 171), DB period
  Patients who experienced relapse (%): 5%
  Patients who experienced relapse (number): 9
[3]; 64 mg throughout the study (N = 104), OL period
  Patients who experienced relapse (number): 10
[3]; 64 mg throughout the study, OL period
  Days to relapse (Kaplan-Meier estimates), Mean: 186.7 days
[3]; 64 mg, DB period
  Days to relapse (Kaplan-Meier estimates), Mean: 82.1 days
[3]; Overall (N = 333), OL period
  Patients who experienced relapse (%): (8%)
  Patients who experienced relapse (number): 25
[3]; Overall, OL period
  Days to relapse (Kaplan-Meier estimates), Mean: 254.1 days
[3]; [11]
  Patients who experienced relapse (%): (10%)
  Patients who experienced relapse (number): 6
[3]; Placebo in DB to 32 mg in OL, OL period
  Days to relapse (Kaplan-Meier estimates), Mean: 253.6 days
[3]; Placebo in DB to 64 mg in OL (N = 63), OL period
  Patients who experienced relapse (number): 0
[3]; Placebo in DB to Roluperidone in OL, Total (N = 122), OL period
  Patients who experienced relapse (number): 6
[3]; Placebo in DB to Roluperidone in OL, Total, OL period
  Days to relapse (Kaplan-Meier estimates), Mean: 260.4 days
[3]; [12]
  Patients who experienced relapse (%): 8%
  Patients who experienced relapse (number): 27
[3]; [13]
  Days to relapse (Kaplan-Meier estimates), Mean: 127.8 days
  Days to relapse (Kaplan-Meier estimates), Median: 137.0 days
[3]; [14]
  Patients who experienced relapse (%): (9%)
  Patients who experienced relapse (number): 19
[3]; Roluperidone throughout, Total, OL period
  Days to relapse (Kaplan-Meier estimates), Mean: 230.9 days
[3]; Study #2 (n = 513), all subjects, Double-blind (12-weeks)
  Relapse by study phase: 6.8%
[3]; Study #2 (n = 513), Overall (over 52 weeks)
  Relapse overall (discontinued because of positive symptoms worsening): 11.7%
[3]; Study #2, Open-label (over 40 weeks)
  Relapse by study phase: 7.5%
[4]; 32 mg QD
  Change from Baseline LS Mean: Calgary Depression Scale for Schizophrenia: −0.2
  Effect Size (Cohen's d) vs Placebo: Calgary Depression Scale for Schizophrenia: 0.21
[4]; 64 mg QD
  Change from Baseline LS Mean: Calgary Depression Scale for Schizophrenia: −0.1
  Effect Size (Cohen's d) vs Placebo: Calgary Depression Scale for Schizophrenia: 0.14
